Laboratory results taken from publication PMC5041131, “Bacteroides intestinalis DSM 17393, a member of the human colonic microbiome, upregulates multiple endoxylanases during growth on xylan” (Scientific Reports, 2016).

Biological target: T1, BiXyl43A (Bacteroides intestinalis, UniProt B3CES2)
T1 construct: gene BACINT_04203; GH43 module without signal peptide; N-terminal 6His tag (pET-46 Ek/LIC), E. coli BL21-CodonPlus(DE3)-RIL; IMAC and size exclusion
T1 sequence (B3CES2 1-325): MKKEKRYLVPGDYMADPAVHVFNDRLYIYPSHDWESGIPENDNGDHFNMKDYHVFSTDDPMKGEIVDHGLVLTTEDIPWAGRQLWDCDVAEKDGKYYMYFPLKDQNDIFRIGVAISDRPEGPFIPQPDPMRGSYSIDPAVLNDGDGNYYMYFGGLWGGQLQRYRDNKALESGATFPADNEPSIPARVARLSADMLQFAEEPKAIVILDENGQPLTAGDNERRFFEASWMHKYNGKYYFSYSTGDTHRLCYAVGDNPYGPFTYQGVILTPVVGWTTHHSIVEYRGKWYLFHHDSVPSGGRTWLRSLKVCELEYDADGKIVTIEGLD
Test: HPAEC-PAD of hydrolysis products
Format: biochemical
Conditions: pH […] sodium phosphate, […] NaCl, […] °C, […] min; […] substrate, […] enzyme

| Compound | HPAEC-PAD of hydrolysis products |
| --- | --- |
| OC1OC[C@@H](O[C@@H]2OC[C@@H](O[C@@H]3OC[C@@H](O)[C@H](O)[C@H]3O)[C@H](O)[C@H]2O)[C@H](O)[C@H]1O (some centres unmarked) [X3, xylotriose] | BiXyl43A against xylo-oligosaccharides (xylobiose, X2; xylotriose, X3; xylotetraose, X4 |
| OC1OC[C@@H](O[C@@H]2OC[C@@H](O)[C@H](O)[C@H]2O)[C@H](O)[C@H]1O (some centres unmarked) [X2, xylobiose] | xylo-oligosaccharides ranging from xylobiose to xylohexaose led to cleavage or hydrolysis to their unit sugar |
